Measurements reported in article PMC10955468 (Frontiers in Pharmacology, 2024).

Key:
TMEM206 (PAORAC/ASOR) [1] = target: T1, TMEM206 (PAORAC/ASOR) (Homo sapiens, UniProt Q9H813); test: whole-cell patch clamp, HCT116; format: cell-based; conditions: HCT-116, read-out: % inhibition at 100 μM
T1 construct: gene PACC1; native full-length channel in HCT116 cells (whole-cell patch clamp); homo-trimer; current absent in TMEM206 knockout clones

TMEM206 (PAORAC/ASOR) [2] = target: T1, TMEM206 (PAORAC/ASOR); test: whole-cell patch clamp, HCT116; format: cell-based; conditions: HCT-116; read-out: % residual current at 100 μM

T1 sequence (Q9H813 whole entry): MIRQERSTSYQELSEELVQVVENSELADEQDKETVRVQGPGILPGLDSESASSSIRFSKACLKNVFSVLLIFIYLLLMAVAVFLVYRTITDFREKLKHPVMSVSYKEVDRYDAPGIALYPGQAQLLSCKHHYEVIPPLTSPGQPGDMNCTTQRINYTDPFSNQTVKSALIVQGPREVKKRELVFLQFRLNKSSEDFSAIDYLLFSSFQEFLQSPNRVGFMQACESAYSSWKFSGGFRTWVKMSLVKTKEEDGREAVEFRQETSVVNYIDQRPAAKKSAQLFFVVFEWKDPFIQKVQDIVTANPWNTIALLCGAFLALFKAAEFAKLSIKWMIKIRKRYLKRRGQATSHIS

| inhibition at 100 µM (TMEM206 (PAORAC/ASOR) [1]) [%] | remaining activity at 100 µM (TMEM206 (PAORAC/ASOR) [2]) [%] | SMILES |
| --- | --- | --- |
| 28 | – | O=C(O)c1ccccc1Nc1cccc(C(F)(F)F)c1 [flufenamic acid] |
| – | 38 | O=C(O)c1cccnc1Nc1cccc(C(F)(F)F)c1 [niflumic acid] |
| – | 53 | Cc1cc(Cl)ccc1OC(C)C(=O)Nc1cc(Cl)ccc1C(=O)O (stereo not drawn) [LBA, 4-chloro-2-(2-(4-chloro-2-methylphenoxy)propanamido)benzoic acid] |
